Source: publication PMC6171417, “Carbonic anhydrase inhibition with a series of novel benzenesulfonamide-triazole conjugates” (Journal of Enzyme Inhibition and Medicinal Chemistry, 2018)

Experiments:
Experiment in all cases: stopped-flow CO2 hydrase assay
Type in all cases: biochemical
hCA IX = target: T1, hCA IX (Homo sapiens, UniProt Q16790)
T1 construct: gene CA9; recombinant, obtained in-house as reported earlier
Text: stopped-flow CO2 hydrase assay on hCA IX

hCA IV = target: T2, hCA IV (Homo sapiens, UniProt P22748)
T2 construct: gene CA4; recombinant, obtained in-house as reported earlier
Text: stopped-flow CO2 hydrase assay on hCA IV

hCA I = target: T3, hCA I (Homo sapiens, UniProt P00915)
T3 construct: gene CA1; recombinant, obtained in-house as reported earlier; cytosolic
Text: stopped-flow CO2 hydrase assay on hCA I

hCA II = target: T4, hCA II (Homo sapiens, UniProt P00918)
T4 construct: gene CA2; recombinant, obtained in-house as reported earlier; cytosolic
Text: stopped-flow CO2 hydrase assay on hCA II

T3 sequence (P00915 2-261): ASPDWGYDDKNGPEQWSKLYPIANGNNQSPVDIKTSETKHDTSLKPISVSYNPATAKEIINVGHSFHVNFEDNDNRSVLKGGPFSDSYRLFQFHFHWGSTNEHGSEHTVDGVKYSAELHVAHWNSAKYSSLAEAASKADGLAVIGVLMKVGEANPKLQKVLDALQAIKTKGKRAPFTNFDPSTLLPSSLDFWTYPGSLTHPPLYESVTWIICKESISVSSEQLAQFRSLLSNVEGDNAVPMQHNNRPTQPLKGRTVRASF
T2 sequence (P22748 19-284): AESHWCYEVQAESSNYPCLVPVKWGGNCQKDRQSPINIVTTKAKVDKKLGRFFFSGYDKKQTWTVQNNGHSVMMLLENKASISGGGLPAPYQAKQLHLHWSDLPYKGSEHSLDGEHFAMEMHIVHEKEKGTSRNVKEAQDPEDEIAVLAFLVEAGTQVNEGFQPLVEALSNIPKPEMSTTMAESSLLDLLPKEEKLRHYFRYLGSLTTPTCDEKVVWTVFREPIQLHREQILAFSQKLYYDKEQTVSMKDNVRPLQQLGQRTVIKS

For `[N-]=[N+]=Nc1ccc(S(N)(=O)=O)cc1` [compound 2, 4-azido benzenesulfonamide], the Ki (hCA IX) was 235 nM and the Ki (hCA IV) was > 10000 nM.

`N#Cc1nnn(-c2ccc(S(N)(=O)=O)cc2)c1N` [compound 3, 4-(5-amino-4-cyano-1H-1,2,3-triazol-1-yl)benzenesulfonamide] was tested, and the Ki (hCA I) was 1940 nM, the Ki (hCA IX) was 118 nM and the Ki (hCA IV) was 2270 nM. For the same compound, the Ki (hCA II) was 16.7 nM.

In the case of `Nc1c(C2=NCCN2)nnn1-c1ccc(S(N)(=O)=O)cc1` [compound 4, 4-(5-amino-4-(4,5-dihydro-1H-imidazol-2-yl)-1H-1,2,3-triazol-1-yl)benzenesulfonamide], the Ki (hCA I) is reported as 9940 nM, the Ki (hCA IX) is reported as 3710 nM and the Ki (hCA IV) is reported as 3190 nM. It also gave a Ki (hCA II) of 6840 nM.

For `N#Cc1nnn(-c2ccc(S(N)(=O)=O)cc2)c1NC(=O)CCl` [compound 5, 2-chloro-N-(4-cyano-1-(4-sulfamoylphenyl)-1H-1,2,3-triazol-5-yl)acetamide], the Ki (hCA I) was 2550 nM, the Ki (hCA IX) was 454 nM and the Ki (hCA IV) was 1200 nM. It also gave a Ki (hCA II) of 518 nM.

`CC(=O)CC(=O)Nc1c(C#N)nnn1-c1ccc(S(N)(=O)=O)cc1` [compound 6, N-(4-cyano-1-(4-sulfamoylphenyl)-1H-1,2,3-triazol-5-yl)-3-oxobutanamide] showed a Ki (hCA I) of 2860 nM, a Ki (hCA IX) of 410 nM and a Ki (hCA IV) of 472 nM. The Ki (hCA II) was 684 nM.

`N#Cc1nnn(-c2ccc(S(N)(=O)=O)cc2)c1NCC(=O)c1ccccc1` [compound 7, 4-(4-cyano-5-((2-oxo-2-phenylethyl)amino)-1H-1,2,3-triazol-1-yl)benzenesulfonamide] showed a Ki (hCA I) of 1790 nM, a Ki (hCA IX) of 283 nM and a Ki (hCA IV) of 745 nM. The Ki (hCA II) was 562 nM.

For `N#Cc1nnn(-c2ccc(S(N)(=O)=O)cc2)c1/N=C/c1ccccc1Cl` [compound 8, (E)-4-(5-((2-chlorobenzylidene)amino)-4-cyano-1H-1,2,3-triazol-1-yl)-benzenesulfonamide], the Ki (hCA I) was 5140 nM, the Ki (hCA IX) was 1770 nM and the Ki (hCA IV) was > 10000 nM. The Ki (hCA II) was 6130 nM.

For `N#Cc1nnn(-c2ccc(S(N)(=O)=O)cc2)c1/N=C/c1ccc(Cl)cc1` [compound 9, (E)-4-(5-((4-chlorobenzylidene)amino)-4-cyano-1H-1,2,3-triazol-1-yl) benzenesulfonamide], the Ki (hCA I) was 1600 nM, the Ki (hCA IX) was 307 nM and the Ki (hCA IV) was 4670 nM. The Ki (hCA II) was 94.5 nM.

Compound `CN(C)c1ccc(/C=N/c2c(C#N)nnn2-c2ccc(S(N)(=O)=O)cc2)cc1` [compound 10, (E)-4-(4-cyano-5-((4-(dimethylamino)benzylidene)amino)-1H-1,2,3-triazol-1-yl)benzenesulfonamide] has a Ki (hCA I) of 2920 nM, a Ki (hCA IX) of 451 nM and a Ki (hCA IV) of 3410 nM. The Ki (hCA II) was 179 nM.

Compound `Cc1ccc(S(=O)(=O)Nc2c(C#N)nnn2-c2ccc(S(N)(=O)=O)cc2)cc1` [compound 12, N-(4-cyano-1-(4-sulfamoylphenyl)-1H-1,2,3-triazol-5-yl)-4-methylbenzenesulfonamide] has a Ki (hCA I) of 8100 nM, a Ki (hCA IX) of 105 nM and a Ki (hCA IV) of 2610 nM. The Ki (hCA II) was 90.1 nM.

`N#Cc1c(N)c2nnn(-c3ccc(S(N)(=O)=O)cc3)c2[nH]c1=O` [compound 13, 4-(7-amino-6-cyano-5-oxo-4,5-dihydro-3H-[1,2,3]triazolo[4,5-b]pyridin-3-yl) benzenesulfonamide] showed a Ki (hCA I) of 790 nM, a Ki (hCA IX) of 287 nM and a Ki (hCA IV) of 167 nM. For the same compound, the Ki (hCA II) was 957 nM.

For `N#Cc1c(-c2ccccc2)nc2c(nnn2-c2ccc(S(N)(=O)=O)cc2)c1N` [compound 14, 4-(7-amino-6-cyano-5-phenyl-3H-[1,2,3]triazolo[4,5-b]pyridin-3-yl)benzenesulfonamide], the Ki (hCA I) was 1250 nM, the Ki (hCA IX) was 46.4 nM and the Ki (hCA IV) was 676 nM. The Ki (hCA II) was 57 nM.

For `N#Cc1c(-c2ccccc2Cl)nc2c(nnn2-c2ccc(S(N)(=O)=O)cc2)c1N` [compound 15, 4-(7-amino-5-(2-chlorophenyl)-6-cyano-3H-[1,2,3]triazolo[4,5-b]pyridin-3-yl)benzenesulfonamide], the Ki (hCA I) was 2690 nM, the Ki (hCA IX) was 407 nM and the Ki (hCA IV) was 2580 nM. The Ki (hCA II) was 230 nM.

With `N=c1c2nnn(-c3ccc(S(N)(=O)=O)cc3)c2[nH]c(=O)n1-c1ccccc1` [compound 19, 4-(7-imino-5-oxo-6-phenyl-4,5,6,7-tetrahydro-3H-[1,2,3]triazolo[4,5-d]pyrimidin-3-yl)benzenesulfonamide] the Ki (hCA I) was 2800 nM, the Ki (hCA IX) was 158 nM and the Ki (hCA IV) was 2270 nM. It also gave a Ki (hCA II) of 589 nM.

`N=c1c2nnn(-c3ccc(S(N)(=O)=O)cc3)c2[nH]c(=S)n1-c1ccc(S(=O)(=O)Nc2cnc3ccccc3n2)cc1` [compound 21] gave a Ki (hCA I) of 5840 nM, a Ki (hCA IX) of 3810 nM and a Ki (hCA IV) of 5030 nM. For the same compound, the Ki (hCA II) was 2370 nM.
